Test results from paper PMC3608532, “Characterization of a Single-Chain Variable Fragment Recognizing a Linear Epitope of Aβ: A Biotechnical Tool for Studies on Alzheimer’s Disease?” (PLoS ONE, 2013).

Experiments:
[1] = tested on: Aβ(2-8); assay: SPR binding kinetics to immobilized Aβ(2-8); conditions: SPR Biacore X, CM5 chip, PBS, 25°C, global fit; scFv-IC16 Langmuir 1:1 model, IC16 bivalent model; ± standard error; SEM
Procedure: (§1) Binding kinetics were determined by SPR using a Biacore™ X (GE Healthcare, UK). Synthetic Aβ peptides were dissolved in 10 mM NaAc, pH 4.0. The CM5 sensor chip surface (GE Healthcare, UK) was activated using N-ethyl-N′-3 […] carbodiimide (EDC) and N-hydroxysuccinimide (NHS) chemistry followed by 2-(2-pyridinyldithio)ethaneamine hydrochloride (PDEA), in order to introduce a reactive thiol group. Aβ was coupled via the C-terminal cysteine to the chip at a flow rate of 5 µl/min, and the remaining active groups were blocked by injecting cysteine. The immobilization procedure was performed according to manufacturer’s recommendation. All kinetic analyses were performed at a flow rate of 20 µl/min in PBS. Varying concentrations of scFv-IC16 (10 to 5000 nM) and IC16 (10 to 1000 nM) were injected. […] When required, the surface was regenerated by injecting 20 µl 50 mM glycine, pH 11.0. The data evaluation was performed using Biaevaluation Software 4.1.1. ScFv-IC16 data were fitted according to the Langmuir 1∶1 binding model, whereas IC16 data were fitted according to the bivalent binding model. Standard errors of equilibrium dissociation constants (KD) were calculated using standard errors of the corresponding association and dissociation rate constants.

[2] = biological target: Aβ(pE3-8); assay: SPR binding kinetics to immobilized Aβ(pE3-8); conditions: SPR Biacore X, CM5 chip, PBS, 25°C, global fit, IC16 bivalent model
Procedure: as §1

[3] = tested on: Aβ(3-8); assay: SPR binding kinetics to immobilized Aβ(3-8); conditions: SPR Biacore X, CM5 chip, PBS, 25°C, global fit; scFv-IC16 Langmuir 1:1 model, IC16 bivalent model; ± standard error; SEM
Procedure: as §1

[4] = tested on: Aβ(8-15); assay: SPR binding kinetics to immobilized Aβ(8-15)
Procedure: as §1

[5] = tested on: Aβ(1-8); assay: SPR binding kinetics to immobilized Aβ(1-8); conditions: SPR Biacore X, PBS, 25°C, global fit, scFv-IC16 Langmuir 1:1 model, IC16 bivalent model, ± standard error, SEM
Procedure: as §1

- k off [1]: 1.54±0.006×10^−3 s^-1
- k on [1]: 4.85±0.01×10^4 M^-1 s^-1
- Kd ([2]; n.d. = no detectable binding (footnote)): 1500 nM
- k off ([2]; ± standard error, SEM): 63±0.05×10^−3 s^-1
- k on ([2]; ± standard error, SEM): 4.21±0.008×10^4 M^-1 s^-1
- k off [3]: 3.43±0.007×10^−3 s^-1
- k on [3]: 4.17±0.006×10^4 M^-1 s^-1
- interaction with Aβ(8-15) [4]: No interaction
- k on ([5]; Aβ peptide coupled via C-terminal cysteine to CM5 chip, 20 µl/min): 3.5±0.02×10^4 M^-1 s^-1
- k off ([5]; CM5 chip): 1.8±0.02×10^−3 s^-1
Substance: IC16: monoclonal IgG2a antibody recognizing Aβ(1-8), from hybridoma of mouse immunized with KLH Aβ(1-16)
